# Experimental data reported in ChEMBL document CHEMBL5244207, “Phenanthrenes: A Promising Group of Plant Secondary Metabolites” (J Nat Prod, 2018).
# Values joined by “and” are separate entries in the source; they are usually repeats but may differ in a detail not shown here. Equal entries are not always repeated.
# Legend:
# RAW264.7 [1] = experiment: Antiinflammatory activity in mouse RAW264.7 cells assessed as reduction in LPS-induced nitric oxide production; type: functional, cell-based
# [2] = Antioxidant activity assessed as DPPH radical scavenging activity; type: functional
# RAW264.7 [3] = experiment: Antiinflammatory activity against mouse RAW264.7 cells assessed as inhibition of LPS-induced COX2 expression; type: functional, cell-based
# RAW264.7 [4] = experiment: Antiinflammatory activity against mouse RAW264.7 cells assessed as inhibition of LPS-induced COX1 expression; type: functional, cell-based
# Staphylococcus aureus [5] = experiment: Antibacterial activity against Staphylococcus aureus ATCC 25923 assessed as inhibition of bacterial growth; type: functional, organism-based
# Staphylococcus aureus [6] = experiment: Antibacterial activity against Staphylococcus aureus ATCC 29213 assessed as inhibition of bacterial growth; type: functional, organism-based
# Staphylococcus aureus [7] = experiment: Antibacterial activity against Staphylococcus aureus ATCC 43300 assessed as inhibition of bacterial growth; type: functional, organism-based
# [8] = Antioxidant activity assessed as DPPH radical scavenging activity at 20 uM relative to control; type: functional
# [9] = Antioxidant activity assessed as ABTS radical scavenging activity; type: functional
# [10] = Antioxidant activity assessed as DPPH radical scavenging activity incubated for 30 mins by spectrophotometric analysis; type: functional
# K562 [11] = experiment: Induction of cell cycle arrest in human K562 cells measured for 24 hrs; type: functional, cell-based; conditions: K562, 24 h
# PC-3 = experiment: Induction of cell cycle arrest in human PC-3 cells measured for 24 hrs; type: functional, cell-based; conditions: PC-3, 24 h
# Trichophyton rubrum [12] = experiment: Antimicrobial activity against Trichophyton rubrum assessed as inhibition zone at 5 ug/disk; type: functional; conditions: read-out: IZ
# [13] = Antioxidant activity assessed as hydrogen peroxide scavenging activity; type: functional
# NCI-H460 = experiment: Cytotoxicity against human NCI-H460 cells assessed as reduction in cell viability; type: functional, cell-based
# M14 = experiment: Cytotoxicity against human M14 cells assessed as reduction in cell viability; type: functional, cell-based
# Trichophyton rubrum [14] = experiment: Antimicrobial activity against Trichophyton rubrum assessed as inhibition zone at 10 ug/disk; type: functional; conditions: read-out: IZ
# RAW264.7 [15] = experiment: Antiinflammatory activity in mouse RAW 264.7 cells assessed as inhibition of LPS-induced nitric oxide production measured after 48 hrs by Griess reagent assay; type: functional, cell-based; conditions: RAW264.7, 48 h
# CT26.WT = experiment: Cytotoxicity against mouse CT26.WT cells by MTT assay; type: functional, cell-based
# B16-F10 = experiment: Cytotoxicity against mouse B16-F10 cells by MTT assay; type: functional, cell-based
# CHO = experiment: Cytotoxicity against CHO cells by MTT assay; type: functional, cell-based; conditions: Cricetulus griseus
# MeWo = experiment: Cytotoxicity against human MeWo cells by MTT assay; type: functional, cell-based
# HaCaT = experiment: Antiinflammatory activity against human HaCaT cells assessed as inhibition of PGE2 production; type: functional, cell-based
# [16] = Inhibition of H2O2-induced ROS production in human HaCaT cells; type: functional, cell-based
# K562 [17] = experiment: Cytotoxicity against human K562 cells assessed as reduction in cell viability; type: functional, cell-based
# HL-60 = experiment: Cytotoxicity against human HL-60 cells assessed as reduction in cell viability; type: functional, cell-based; conditions: hl-60
# A549 = experiment: Cytotoxicity against human A549 cells assessed as reduction in cell viability; type: functional, cell-based
# SK-OV-3 = experiment: Cytotoxicity against human SK-OV-3 cells assessed as reduction in cell viability; type: functional, cell-based
# BV-2 [18] = experiment: Antiinflammatory activity in mouse BV2 cells assessed as reduction in LPS-induced nitric oxide production at 10 uM relative to control; type: functional; set-up: scale not given: the % may be the effect or the level left
# BV-2 [19] = experiment: Antiinflammatory activity in mouse BV2 cells assessed as reduction in LPS-induced nitric oxide production; type: functional, cell-based
# Pichia kudriavzevii = experiment: Antifungal activity against Candida krusei assessed as inhibition of fungal growth measured after 48 hrs by CLSI based agar dilution method; type: functional, organism-based
compound,measurement,setting,value
COC(C)c1cc(O)cc2ccc3c(C)c(O)ccc3c12 (stereo unspecified),IC50,"RAW264.7 [1]; Mus musculus, RAW264.7",11.1 µM
same,IC50,RAW264.7 [1]; raw264.7,16.3 µM
COc1c(O)cc2c(c1OC)-c1ccc(O)cc1CC2 [ERIANTHRIDIN],IC50,[2]; read-out: IC50,14.9 µM
COC1=CC(=O)c2c(ccc3cc(OC)c(O)cc23)C1=O,IC50,RAW264.7 [3],0.27 µM
same,IC50,RAW264.7 [4],0.08 µM
C=Cc1cc(O)cc2c1-c1cc(-c3c(O)cc(C=C)c4c3ccc3c(C)c(O)ccc34)c(O)c(C)c1CC2,IC50,"RAW264.7 [1]; Mus musculus, RAW264.7",7.4 µM
COc1cc(O)c(-c2c(O)cc(OC)c3c2ccc2cc(O)ccc23)c2ccc3cc(O)ccc3c12 [CIRRHOPETALANTHIN],IC50,Staphylococcus aureus [5],6.25 µg/mL
same,IC50,Staphylococcus aureus [6],6.25 µg/mL
same,IC50,Staphylococcus aureus [7],6.25 µg/mL
COc1cc(O)c2c(c1)CCc1cc(O)c(-c3c(OC)cc(O)c4c3CCc3cc(O)ccc3-4)cc1-2,EC50,[2],26.7 µM
COc1cc(O)cc2cc(O)c3cccc(OC)c3c12,IC50,[2]; read-out: IC50,59.8 µM
O=C1O[C@H]([C@@H](O)CO)C(O)=C1O [ASCORBIC ACID],Activity,[8],2.9%
same,Activity,[9],88.7%
same,IC50,[2]; read-out: IC50,18 µM
same,IC50,[10],0.41 µM
COC1=CC(=O)c2ccc3cc(OC)cc(O)c3c2C1=O [DENBINOBIN],IC50,K562 [11],1.8 µM
same,IC50,PC-3,7.5 µM
CC(=O)N1CCN(c2ccc(OCC3COC(Cn4ccnc4)(c4ccc(Cl)cc4Cl)O3)cc2)CC1 (stereo unspecified) [KETOCONAZOLE],zone of inhibition at 5 µg/disc,Trichophyton rubrum [12],15.7 mm
Oc1cc2c3c(c1)COc1cc(O)cc(c1-3)CC2,IC50,[2]; read-out: IC50,6.6 µM
same,IC50,[13],0.08 µM
C=Cc1c(C)c(O)c(-c2c(O)c(C)c(C=C)c3c2ccc2c(C)c(O)ccc23)c2ccc3c(C)c(O)ccc3c12,Activity,[9],85.2%
C[C@@H]1O[C@@H](OC[C@H]2O[C@@H](Oc3c(-c4ccc(O)c(O)c4)oc4cc(O)cc(O)c4c3=O)[C@H](O)[C@@H](O)[C@@H]2O)[C@H](O)[C@H](O)[C@H]1O [RUTIN],IC50,[2],2.5 µg/mL
COc1cc(O)c2c(c1)CCc1cc(O)c(-c3c(OC)cc(O)c4c3ccc3cc(O)ccc34)cc1-2,IC50,[2],12.9 µg/mL
COC1=CC(=O)c2c(ccc3cccc(O)c23)C1=O,IC50,NCI-H460,5 µM
same,IC50,M14,1.5 µM
COc1cc2c(c(OC)c1O)-c1c(ccc(O)c1O)CC2,zone of inhibition at 10 µg/disc,Trichophyton rubrum [14],12.7 mm
C=Cc1c(C)c(O)cc2c1ccc1c(C)c(O)ccc12,IC50,RAW264.7 [15],3.2 µM
COc1cc2cc(O)cc(OC)c2c2c(O)cccc12,IC50,"RAW264.7 [1]; Mus musculus, RAW264.7",24.1 µM
same,IC50,[2]; read-out: IC50,6.8 µM
same,IC50,[13],19 µM
O=c1[nH]cc(F)c(=O)[nH]1 [FLUOROURACIL],IC50,CT26.WT,5 µg/mL
same,IC50,B16-F10,4 µg/mL
same,IC50,CHO,12 µg/mL
same,IC50,MeWo,8 µg/mL
Cc1c(O)ccc2c1CCc1cc(O)cc(CO)c1-2,IC50,"RAW264.7 [1]; Mus musculus, RAW264.7",16 µM
COc1c(O)cc2c3c1COc1cc(O)cc(c1-3)CC2,IC50,HaCaT,12.2 µM
same,EC50,[2],8.8 µM
same,IC50,[2]; read-out: IC50,8.4 µM
same,IC50,[13],0.03 µM
same,IC50,[16],8.8 µM
C=Cc1ccc(CO)c2c1-c1ccc(O)c(C)c1CC2,IC50,"RAW264.7 [1]; Mus musculus, RAW264.7",14.4 µM
COc1cc(O)cc2c1-c1ccc(O)cc1CC2,IC50,[2]; read-out: IC50,16.7 µM and 8.5 µM
same,IC50,[13],0.08 µM
COc1cc(O)c2c(c1)CCc1cc(O)ccc1-2 [LUSIANTHRIDIN],IC50,RAW264.7 [15],4.6 µM
same,EC50,[2],22.3 µM
same,IC50,[2]; read-out: IC50,62.2 µM and 22.3 µM
COc1cc(O)c2c(c1)CCc1cc(-c3cc(OC)c4c(c3O)CCc3cc(O)ccc3-4)c(O)cc1-2,IC50,K562 [17],6.1 µM
same,IC50,HL-60,1.3 µM
same,IC50,A549,9.2 µM
COc1cc(O)c2c(c1)CCc1cc(O)c(-c3c(OC)cc(O)c4c3CCc3c-4ccc(O)c3-c3c(OC)cc(O)c4c3CCc3cc(O)ccc3-4)cc1-2,IC50,SK-OV-3,41.5 µg/mL
same,IC50,[2],4.8 µg/mL
N=C(N)NN [PIMAGEDINE],IC50,[2]; read-out: IC50,21.7 µM
Cc1c(O)cc2c3c1CCc1c(C)c(O)cc(c1-3)C2C,Activity,BV-2 [18],11.2%
OC[C@H]1O[C@@H](O[C@H]2[C@H](O)[C@@H](O)[C@H](Oc3ccc4ccc5ccc(O)cc5c4c3O)O[C@@H]2CO)[C@H](O)[C@@H](O)[C@@H]1O,IC50,BV-2 [19],15.3 µg/mL
COc1cc(O)c2c(c1-c1c(OC)cc(O)c3c1CCc1cc(O)ccc1-3)CCc1cc(O)ccc1-2,EC50,[2],7.7 µM
COc1cc(O)c2c(c1)CCc1cc(O)c(-c3c(/C=C/c4cccc(O)c4)cc(O)cc3OC)cc1-2,EC50,[2],47.3 µM
COc1cc2c(c(O)c1C)CCc1c-2ccc(O)c1C=O,IC50,CT26.WT,4 µg/mL
same,IC50,B16-F10,8 µg/mL
same,IC50,CHO,6 µg/mL
same,IC50,MeWo,5 µg/mL
same,IC50,Pichia kudriavzevii,31.3 µg/mL
